Assay results reported in ChEMBL document CHEMBL5252600, “Anti-Aβ42 Aggregative Polyketides from the Antarctic Psychrophilic Fungus Pseudogymnoascus sp. OUCMDZ-3578” (J Nat Prod, 2023).
Active and inactive are the calls of the source. No cut-off for these calls is given here.

What was measured:
[1] = biological target: T1, Amyloid-beta precursor protein (Homo sapiens, UniProt P05067); assay: Inhibition of Amyloid beta (1 to 42) (unknown origin) aggregation at 100 uM incubated for 24 hrs by ThioflavinT-dye based fluorescence analysis
T1 sequence (P05067 whole entry): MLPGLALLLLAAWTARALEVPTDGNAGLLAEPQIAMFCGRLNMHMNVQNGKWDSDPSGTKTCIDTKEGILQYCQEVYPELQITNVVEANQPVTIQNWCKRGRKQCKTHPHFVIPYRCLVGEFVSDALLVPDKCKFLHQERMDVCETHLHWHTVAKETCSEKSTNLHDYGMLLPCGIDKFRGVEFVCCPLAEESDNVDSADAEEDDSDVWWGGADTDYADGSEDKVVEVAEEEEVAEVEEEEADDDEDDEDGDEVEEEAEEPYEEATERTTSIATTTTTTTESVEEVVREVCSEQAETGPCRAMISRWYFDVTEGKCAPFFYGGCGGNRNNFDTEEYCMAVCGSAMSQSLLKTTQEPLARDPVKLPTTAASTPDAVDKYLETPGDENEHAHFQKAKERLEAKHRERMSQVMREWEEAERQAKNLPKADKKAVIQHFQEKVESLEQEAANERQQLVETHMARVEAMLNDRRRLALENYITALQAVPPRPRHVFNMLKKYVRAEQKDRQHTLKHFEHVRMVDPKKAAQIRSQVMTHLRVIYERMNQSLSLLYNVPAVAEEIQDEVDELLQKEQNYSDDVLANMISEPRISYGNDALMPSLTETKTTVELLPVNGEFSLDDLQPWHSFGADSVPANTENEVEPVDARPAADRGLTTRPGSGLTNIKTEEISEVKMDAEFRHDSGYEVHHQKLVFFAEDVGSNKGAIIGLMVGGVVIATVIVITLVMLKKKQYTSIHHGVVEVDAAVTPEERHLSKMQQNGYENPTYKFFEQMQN

[2] = biological target: T1, Amyloid-beta precursor protein; assay: Inhibition of Amyloid beta (1 to 42) (unknown origin) aggregation incubated for 24 hrs by ThioflavinT-dye based fluorescence analysis
[3] = Metal chelating activity assessed as compound-Fe3+ complex formation incubated for 1 hr by UV-vis spectrophotometric analysis
[4] = biological target: T1, Amyloid-beta precursor protein; assay: Disaggregation of Fe3+ induced Amyloid beta (1 to 42) (unknown origin) aggregation at 100 uM incubated for 24 hrs by ThioflavinT-dye based fluorescence analysis
[5] = Metal chelating activity assessed as compound-Cu2+ complex formation incubated for 1 hr by UV-vis spectrophotometric analysis
[6] = Metal chelating activity assessed as compound-Zn2+ complex formation incubated for 1 hr by UV-vis spectrophotometric analysis

| SMILES | inhibition [1] [%] | IC50 [2] [µM] | Activity [3] | Activity [4] | Activity [5] | Activity [6] |
| --- | --- | --- | --- | --- | --- | --- |
| COC(=O)c1cc(O[C@@H]2O[C@H](COC(=O)CCC(=O)O)[C@@H](O)[C@H](O)[C@H]2O)cc(OC)c1C(=O)c1c(O)cc(C)cc1O | 64.1 | 3.01 |  |  |  |  |
| O=C(O[C@@H]1Cc2c(O)cc(O)cc2O[C@@H]1c1cc(O)c(O)c(O)c1)c1cc(O)c(O)c(O)c1 [EPIGALOCATECHIN GALLATE] |  | 0.14 |  |  |  |  |
| COC(=O)c1cc(O)cc(OC)c1C(=O)c1c(O)cc(CO[C@H]2O[C@H](CO)[C@@H](O)[C@H](O)[C@H]2O)cc1O | 84.5 | 1.03 | Active | Active | Active | Active |
| COc1cc(O)cc(C(=O)O)c1C(=O)c1c(O)cc(CO)cc1O | 73.2 | 1.07 | Active | Active | Active | Active |

Other lines, results leading:

| inhibition [1] [%] | IC50 [2] [µM] | Activity [3] | Activity [4] | Activity [5] | Activity [6] | SMILES |
| --- | --- | --- | --- | --- | --- | --- |
| 86.3 | 0.18 | Active | Active | Active | Active | Cc1cc(O)c(C(=O)c2c(O)cc3c(c2O)C(=O)c2c(O)cc(C)cc2C3=O)c(C(=O)c2cc(O)c(O)cc2O)c1 |
| 85.7 | 0.1 | Active | Active | Active | Active | COC(=O)c1c(O)cc(C)c(Sc2c(O)cc(OC)c(Oc3c(O)cc(C)cc3O)c2O)c1C(=O)c1c(O)cc(C)cc1O |
| 85.2 | 4.73 |  |  |  |  | COC(=O)c1cc(O[C@@H]2O[C@H](CO)[C@@H](O)[C@H](O)[C@H]2O)cc(OC)c1C(=O)c1c(O)cc(C)cc1O |
| 85.5 | 1.56 |  |  |  |  | COC(=O)c1c(O)cc(C)cc1C(=O)c1cc(O)cc2oc3cc4c(c(O)c3c12)C(=O)c1c(O)cc(C)cc1C4=O |
